This is an account of results in patent US6730677B2, “Benzofurazan compounds which enhance AMPA receptor activity” (The Regents of the University of California, priority 1997, dated 2004).

Usually melting point stands for the temperature, or range, at which the solid turns liquid.

The subject of series [1] is AMPA receptors. The series is described as follows: Field EPSP amplitude in field CA1 of rat hippocampal slice (in vitro physiological testing). It counts as cell-based. The following applies: estimated by interpolation or extrapolation.
Excerpt: The field EPSP (excitory post-synaptic potential) recorded in field CA1 after stimulation of CA3 axons is known to be mediated by AMPA receptors, which are present in the synapses (Kessler et al., Brain Res. 560: 337-341 (1991)). Drugs that selectively block the receptor selectively block the field EPSP (Muller et al., Science, supra). […] These effects are mirrored in the field EPSP (see, for example, Staubli et al., Psychobiology, supra; Xiao et al., Hippocampus, supra; Staubli et al., Hippocampus 2:4958 (1992)).
To obtain the data shown in Table I, a bipolar nichrome stimulating electrode was positioned in the dendritic layer (stratum radiatum) of the hippocampal subfield CA1 close to the border of subfield CA3, as described in Example 21. Current pulses (0.1 msec) through the stimulating electrode activate a population of the Schaffer-commissural (SC) fibers, which arise from neurons in the subdivision CA3 and terminate in synapses on the dendrites of CA1 neurons. Activation of these synapses causes them to release the transmitter glutamate. Glutamate binds to the post-synaptic AMPA receptors which then transiently open an associated ion channel and permit a sodium current to enter the post-synaptic cell. This current results in a voltage in the extracellular space (the field EPSP), which is recorded by a high impedance recording electrode positioned in the middle of the stratum radiatum of CA1.
The intensity of the stimulation current was adjusted to produce half-maximal EPSPs (typically about 1.5-2.0 mV). Paired stimulation pulses were given every 40 sec with an interpulse interval of 200 msec, as described further in Example 21.
(§1) Hippocampal slices were maintained in a recording chamber continuously perfused with artificial cerebrospinal fluid (ACSF). During 15-30 minute intervals, the perfusion medium was switched to one containing various concentrations of the test compounds. Responses collected immediately before and at the end of drug perfusion were superimposed in order to calculate the percent increase in EPSP amplitude.
Invention compounds 1-9, as shown in FIG. 3 and Table I below, and reference compound CX516 (1-(quinoxalin-6-ylcarbonyl)piperidine), disclosed in PCT Pubn. No. WO 94/02475, were assayed in the physiological test system described above.
as §1, with “The physiological effects of invention compounds were tested in vitro with” for “Hippocampal”, “slices of rat hippocampus according to the following procedure. Excitatory responses (field EPSPs) were measured in hippocampal slices, which” for “slices”, “During a” for “During”, “interval,” for “intervals,”
To conduct these tests, the hippocampus was removed from anesthetized, 2 month old Sprague-Dawley rats and in vitro slices (400 micrometers thick) were prepared and maintained in an interface chamber at 35° C. using conventional techniques [see, for example, Dunwiddie and Lynch, J. Physiol. 276: 353-367 (1978)]. The chamber was constantly perfused at 0.5 mL/min with ACSF containing (in mM): NaCl 124, KCl 3, KH2PO4 1.25, MgSO42.5, CaCl2 3.4, NaHCO3 26, glucose 10 and L-ascorbate 2. A bipolar nichrome stimulating electrode was positioned in the dendritic layer (stratum radiatum) of the hippocampal subfield CA1 close to the border of subfield CA3.
Current pulses (0.1 msec) through the stimulating electrode activate a population of the Schaffer-commissural (SC) fibers which arise from neurons in the subdivision CA3 and terminate in synapses on the dendrites of CA1 neurons. Activation of these synapses causes them to release the transmitter glutamate. […]

Series [2] is described as follows: Eight-arm radial maze task for cognition/memory enhancement. It counts as in vivo. From the text:
This task has been described previously (Staubli et al., PNAS 91:777-781 (1994)) and Lynch and Rogers, PCT Pubn. No. WO 94/02475).

A short description of series [3]: Animal model of depression (Malatynska and Kostowski). Format: in vivo. The following applies: for Potency relative to the reference compound in the animal model of depression: compared with CX516; for MEDD: Minimum Effective Dose that produces a statistically significant improvement in behavior in an animal model of depression: in vivo. From the text: J. Pharmacol. 40, 357-364 (1984).

The subject of series [4] is methamphetamine-induced hyperactivity and/or stereotypic activity. The series is described as follows: Methamphetamine/rat model of schizophrenia (hyperactivity and/or stereotypic activity). It counts as in vivo, Sprague-Dawley rats. The following applies: for MEDS: Minimum Effective Dose that produces a statistically significant improvement in behavior in the animal model of schizophrenia: rats, 2 mg/kg methamphetamine, activity monitored for 90 minutes. The procedure:
The dose recorded is that which reduced the hyperactivity and/or the stereotypic activity induced by acute administration of 2 mg/kg methamphetamine in rats, as described in Example 22.
The dose recorded is that which reduced the hyperactivity and/or the stereotypic activity induced by acute administration of 2 mg/kg methamphetamine in Sprague-Dawley rats aged 2-4 months. Activity was monitored for 90 minutes using two rows of multiple, paired infrared diode-detectors such that the lower row detected locomotion and the upper row detected rearing behavior. Data were collected by and stored in a personal computer for later analysis.

The molecule `CC1CCN(C(=O)c2ccc3nonc3c2)CC1` [Compound 13, 1-(Benzofurazan-5-ylcarbonyl)-4-methylpiperidine] had a melting point of 86 to 87 °C.

Regarding `O=C(c1ccc2nonc2c1)N1CCC(O)CC1` [Compound 9, 1-(Benzofurazan-5-ylcarbonyl)-4-hydroxypiperidine], the melting point is 132 to 136 °C. Besides, the “Amp: concentration of compound that causes a 10% increase in the amplitude of the field EPSP in Field CA1 of rat hippocampal slice” value in series [1] was 20 µM. The “MEDC: Minimum Effective Dose that produces a statistically significant improvement in behavior in the eight-arm radial maze task” value in series [2] is reported as 0.1 mg/kg. For the same molecule, in series [3], the “Potency relative to the reference compound in the animal model of depression” value is “approximately 500 fold” and the “MEDD: Minimum Effective Dose that produces a statistically significant improvement in behavior in an animal model of depression” value was 0.01 mg/kg.

Regarding `O=C(c1ccc2nsnc2c1)N1CCCCC1` [Compound 1, 1-(Benzo-2,1,3-thiadiazole-5-ylcarbonyl)piperidine], the “Amp: concentration of compound that causes a 10% increase in the amplitude of the field EPSP in Field CA1 of rat hippocampal slice” value in series [1] is less than 100 µM.

Take `O=C(c1ccc2nonc2c1)N1CC=CCC1` [Compound 3, 1-(Benzofurazan-5-ylcarbonyl)-1,2,3,6-tetrahydropyridine]: the “Amp: concentration of compound that causes a 10% increase in the amplitude of the field EPSP in Field CA1 of rat hippocampal slice” value in series [1] is 100 µM.

In turn, `O=C(c1ccc2nonc2c1)[SH]1CCNCC1` [Compound 10, 1-(Benzofurazan-5-ylcarbonyl)thiomorpholine] had a melting point of 144 to 146 °C.

Regarding `O=C(c1ccc2nonc2c1)N1CCOCC1` [Compound 7, 4-(Benzofurazan-5-ylcarbonyl)morpholine], the “Amp: concentration of compound that causes a 10% increase in the amplitude of the field EPSP in Field CA1 of rat hippocampal slice” value in series [1] is 3 µM. In addition, the “MEDC: Minimum Effective Dose that produces a statistically significant improvement in behavior in the eight-arm radial maze task” value in series [2] came out at 0.1 mg/kg.

The molecule `O=C(c1ccc2nonc2c1)N1CCCCCC1` [Compound 14, 1-(Benzofurazan-5-ylcarbonyl)hexamethyleneimine] had a melting point of 86 to 87 °C.

In the case of `O=C(c1ccc2nonc2c1)N1CCCCC1` [Compound 2, 1-(Benzofurazan-5-ylcarbonyl)piperidine], the melting point lay in the range of 88.5 to 90.5 °C. In series [1], the “Amp: concentration of compound that causes a 10% increase in the amplitude of the field EPSP in Field CA1 of rat hippocampal slice” value is 3 µM. Besides, the “Reduction in dose giving an equivalent effect relative to reference compound CX516” value in series [4] (methamphetamine/rat model) is listed as “hundred-fold”. For the same molecule, the “MEDS: Minimum Effective Dose that produces a statistically significant improvement in behavior in the animal model of schizophrenia” value in series [4] was determined as 0.1 mg/kg. Moreover, in series [2], the “MEDC: Minimum Effective Dose that produces a statistically significant improvement in behavior in the eight-arm radial maze task” value is given as 0.1 mg/kg. In series [3], the “Potency relative to the reference compound in the animal model of depression” value was “approximately 500 fold” and the “MEDD: Minimum Effective Dose that produces a statistically significant improvement in behavior in an animal model of depression” value came to 0.01 mg/kg.

As to `O=C(c1ccc2nonc2c1)N1CCCC1` [Compound 11, 1-(Benzofurazan-5-ylcarbonyl)pyrrolidine], the melting point fell in the range of 97.8 to 99.3 °C.

Regarding `O=C(c1ccc2nonc2c1)N1CCC(F)CC1` [Compound 4, 1-(Benzofurazan-5-ylcarbonyl)-4-fluoropiperidine], the “Amp: concentration of compound that causes a 10% increase in the amplitude of the field EPSP in Field CA1 of rat hippocampal slice” value in series [1] is 30 µM. Moreover, in series [4], the “MEDS: Minimum Effective Dose that produces a statistically significant improvement in behavior in the animal model of schizophrenia” value was determined as 1 mg/kg.

With `O=C(c1ccc2nonc2c1)N1CCC(F)(F)CC1` [Compound 5, 1-(Benzofurazan-5-ylcarbonyl)-4,4-difluoropiperidine], in series [1], the “Amp: concentration of compound that causes a 10% increase in the amplitude of the field EPSP in Field CA1 of rat hippocampal slice” value is 50 µM. The “MEDS: Minimum Effective Dose that produces a statistically significant improvement in behavior in the animal model of schizophrenia” value in series [4] was found to be 1 mg/kg.

Consider `O=C(c1ccc2nccnc2c1)N1CCCCC1` [CX516, 1-(quinoxalin-6-ylcarbonyl)piperidine, reference compound], for which, in series [1], the “Amp: concentration of compound that causes a 10% increase in the amplitude of the field EPSP in Field CA1 of rat hippocampal slice” value is 50 µM. The “MEDS: Minimum Effective Dose that produces a statistically significant improvement in behavior in the animal model of schizophrenia” value in series [4] is 10 mg/kg. In series [2], the “MEDC: Minimum Effective Dose that produces a statistically significant improvement in behavior in the eight-arm radial maze task” value worked out at 15 mg/kg. Moreover, the “MEDD: Minimum Effective Dose that produces a statistically significant improvement in behavior in an animal model of depression” value in series [3] stood at 5 mg/kg.

For the molecule `O=C(c1ccc2nonc2c1)N1CC=C(F)CC1` [Compound 6, 1-(Benzofurazan-5-ylcarbonyl)-1,2,3,6-tetrahydro-4-fluoropyridine], the “Amp: concentration of compound that causes a 10% increase in the amplitude of the field EPSP in Field CA1 of rat hippocampal slice” value in series [1] is 30 µM.

`N#CC1CCN(C(=O)c2ccc3nonc3c2)CC1` [Compound 8, 1-(Benzofurazan-5-ylcarbonyl)-4-cyanopiperidine] returned a melting point of 104 to 107 °C. Further, the “Amp: concentration of compound that causes a 10% increase in the amplitude of the field EPSP in Field CA1 of rat hippocampal slice” value in series [1] is 1 µM. For the same molecule, in series [2], the “MEDC: Minimum Effective Dose that produces a statistically significant improvement in behavior in the eight-arm radial maze task” value was determined as 0.1 mg/kg.

With `O=C(c1ccc2nonc2c1)N1CC=CC1` [Compound 12, 1-(Benzofurazan-5-ylcarbonyl)-3-pyrroline], the melting point was 117 to 118 °C.
